From article PMC7269503 (Antimicrobial Agents and Chemotherapy, 2020)
In brackets after ≈: the same amount, converted by molar mass. Read-outs that look alike come from different tables or passages of the source.

How the values were obtained:
M. tuberculosis Kurono = format: in vivo; conditions: in vivo
[1] = tested on: M. tuberculosis ATCC 27294 (H37Rv); assay: MIC by agar proportion method, standard strain; format: cell-based; conditions: Mycobacterium tuberculosis
[2] = tested on: M. tuberculosis ATCC 35822 (H37Rv INH-R); assay: MIC by agar proportion method, standard strain; format: cell-based; conditions: Mycobacterium tuberculosis
M. africanum ATCC 25420 = assay: MIC by agar proportion method, standard strain; format: cell-based; conditions: ATCC25420
[3] = tested on: M. tuberculosis ATCC 35828 (H37Rv PZA-R); assay: MIC by agar proportion method, standard strain; format: cell-based; conditions: Mycobacterium tuberculosis
[4] = tested on: M. tuberculosis ATCC 35837 (H37Rv EMB-R); assay: MIC by agar proportion method, standard strain; format: cell-based; conditions: Mycobacterium tuberculosis
[5] = tested on: M. tuberculosis ATCC 35838 (H37Rv RIF-R); assay: MIC by agar proportion method, standard strain; format: cell-based; conditions: Mycobacterium tuberculosis
[6] = tested on: M. tuberculosis ATCC 35812 (Kurono); assay: MIC by agar proportion method, standard strain; format: cell-based; conditions: Mycobacterium tuberculosis, ATCC35812
[7] = tested on: M. tuberculosis ATCC 35820 (H37Rv SM-R); assay: MIC by agar proportion method, standard strain; format: cell-based; conditions: Mycobacterium tuberculosis
M. caprae ATCC BAA-824 = assay: MIC by agar proportion method, standard strain; format: cell-based; conditions: ATCCBAA824
[8] = tested on: M. pinnipedii ATCC BAA-688; assay: MIC by agar proportion method, standard strain; format: cell-based; conditions: ATCCBAA688
M. bovis ATCC BAA-935 = assay: microbe, parasite or virus in culture; format: cell-based; conditions: Mycobacterium tuberculosis variant bovis, ATCCBAA935
M. microti ATCC 11152 = assay: MIC by agar proportion method, standard strain; format: cell-based; conditions: ATCC11152
[9] = tested on: intracellular M. tuberculosis H37Rv; assay: microbe, parasite or virus in culture; format: cell-based
[10] = tested on: intracellular M. tuberculosis Kurono; assay: microbe, parasite or virus in culture; format: cell-based
[11] = target: recombinant M. bovis BCG-derived DprE1 (Mycobacterium tuberculosis, UniProt P9WJF1); assay: biochemical
Sequence of recombinant M. bovis BCG-derived DprE1 (P9WJF1 whole entry): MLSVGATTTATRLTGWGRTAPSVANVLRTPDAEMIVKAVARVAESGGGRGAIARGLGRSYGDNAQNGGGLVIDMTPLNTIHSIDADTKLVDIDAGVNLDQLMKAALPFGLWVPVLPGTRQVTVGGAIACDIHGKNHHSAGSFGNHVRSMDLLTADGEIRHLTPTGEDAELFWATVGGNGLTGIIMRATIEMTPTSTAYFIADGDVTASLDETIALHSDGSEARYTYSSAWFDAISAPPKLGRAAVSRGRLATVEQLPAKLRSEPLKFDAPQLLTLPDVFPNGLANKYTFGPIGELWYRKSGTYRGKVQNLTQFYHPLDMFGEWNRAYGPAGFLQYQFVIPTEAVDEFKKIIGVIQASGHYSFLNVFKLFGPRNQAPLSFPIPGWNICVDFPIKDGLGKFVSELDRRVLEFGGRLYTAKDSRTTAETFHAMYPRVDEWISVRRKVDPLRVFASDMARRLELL

[12] = ATCC 27294 (H37Rv), agar proportion method, […], read-out: MIC
[13] = […], agar proportion method, read-out: MIC
[14] = M. africanum ATCC 25420, agar proportion method, read-out: MIC
[15] = ATCC 35812 (Kurono), agar proportion method, read-out: MIC
[16] = M. caprae ATCC BAA-824, agar proportion method, read-out: MIC
[17] = M. pinnipedii ATCC BAA-688, agar proportion method, read-out: MIC
[18] = M. microti ATCC 11152, agar proportion method, read-out: MIC

SMILES | lung CFU compared to the vehicle group, single agent (M. tuberculosis Kurono) | MIC [1, 12] [µg/mL] | MIC [2, 13] [µg/mL] | MIC (M. africanum ATCC 25420; [14]) [µg/mL] | MIC [3, 13] [µg/mL] | MIC [4, 13] [µg/mL] | MIC [5, 13] [µg/mL] | MIC [6, 15] [µg/mL] | MIC [7, 13] [µg/mL] | MIC (M. caprae ATCC BAA-824; [16]) [µg/mL] | MIC [8, 17] [µg/mL] | MIC (M. bovis ATCC BAA-935) [µg/mL] | MIC (M. microti ATCC 11152; [18]) [µg/mL] | also measured
C[C@H]1COc2c(N3CCN(C)CC3)c(F)cc3c(=O)c(C(=O)O)cn1c23 [LVX, levofloxacin] | significant decrease of lung CFU | 0.5 (≈ 1.38 µM) | 0.5 (≈ 1.38 µM) | 0.25 (≈ 0.692 µM) | 0.5 (≈ 1.38 µM) | 0.5 (≈ 1.38 µM) | 0.5 (≈ 1.38 µM) | 0.5 (≈ 1.38 µM) | 0.5 (≈ 1.38 µM) | 0.25 (≈ 0.692 µM) | 0.25 (≈ 0.692 µM) | 0.25 (≈ 0.692 µM) | 0.25 (≈ 0.692 µM) | 
CC(=O)NC[C@H]1CN(c2ccc(N3CCOCC3)c(F)c2)C(=O)O1 [LZD, linezolid] |  |  |  |  |  |  |  |  |  |  |  | 0.5 (≈ 1.48 µM) |  | MIC [1]: 1 µg/mL (≈ 2.96 µM); MIC [2]: 1 µg/mL (≈ 2.96 µM); MIC (M. africanum ATCC 25420): 0.5 µg/mL (≈ 1.48 µM); MIC [3]: 1 µg/mL (≈ 2.96 µM); MIC [4]: 0.5 µg/mL (≈ 1.48 µM); MIC [5]: 0.5 µg/mL (≈ 1.48 µM); MIC [6]: 1 µg/mL (≈ 2.96 µM); MIC [7]: 0.5 µg/mL (≈ 1.48 µM); MIC (M. caprae ATCC BAA-824): 0.25 µg/mL (≈ 0.741 µM); MIC [8]: 1 µg/mL (≈ 2.96 µM); MIC (M. microti ATCC 11152): 0.5 µg/mL (≈ 1.48 µM)
[H]/N=C(/N)N[C@H]1[C@H](O)[C@@H](O)[C@H](O[C@@H]2O[C@@H](C)[C@](O)(C=O)[C@H]2O[C@@H]2O[C@@H](CO)[C@H](O)[C@@H](O)[C@@H]2NC)[C@@H](N/C(N)=N\[H])[C@@H]1O [STR, streptomycin] |  |  |  |  |  |  |  |  |  |  |  |  |  | bactericidal activity against intracellular bacilli ([9]; H37Rv in THP-1-derived macrophage-like cells, 3 days): no bactericidal activity; bactericidal activity against intracellular bacilli ([10]; Kurono in THP-1-derived macrophage-like cells, 3 days): no bactericidal activity
C[C@]1(COc2ccc(N3CCC(Oc4ccc(OC(F)(F)F)cc4)CC3)cc2)Cn2cc([N+](=O)[O-])nc2O1 [DMD, delamanid] | significant decrease of lung CFU | 0.004 (≈ 0.00748 µM) | 0.004 (≈ 0.00748 µM) | 0.001 (≈ 0.00187 µM) | 0.004 (≈ 0.00748 µM) | 0.004 (≈ 0.00748 µM) | 0.004 (≈ 0.00748 µM) | 0.004 (≈ 0.00748 µM) | 0.004 (≈ 0.00748 µM) | 0.002 (≈ 0.00374 µM) | 0.002 (≈ 0.00374 µM) | 0.004 (≈ 0.00748 µM) | 0.002 (≈ 0.00374 µM) | 
C[C@H]1COC2(CCN(c3nc(=O)c4cc(C(F)(F)F)cc([N+](=O)[O-])c4s3)CC2)O1 [BTZ043] |  |  |  |  |  |  |  |  |  |  |  |  |  | IC50 [11]: 403 nM
NNC(=O)c1ccncc1 [INH, isoniazid] |  |  |  |  |  |  |  |  |  |  |  |  |  | IC50 [11]: > 10000 nM
COc1nc2ccc(Br)cc2cc1[C@@H](c1ccccc1)[C@@](O)(CCN(C)C)c1cccc2ccccc12 [BDQ, bedaquiline] | significant decrease of lung CFU | 0.063 (≈ 0.113 µM) | 0.063 (≈ 0.113 µM) | 0.25 (≈ 0.45 µM) | 0.13 (≈ 0.234 µM) | 0.063 (≈ 0.113 µM) | 0.063 (≈ 0.113 µM) | 0.063 (≈ 0.113 µM) | 0.063 (≈ 0.113 µM) | 0.13 (≈ 0.234 µM) | 0.13 (≈ 0.234 µM) | 0.13 (≈ 0.234 µM) | 0.063 (≈ 0.113 µM) | 
CO[C@H]1/C=C/O[C@@]2(C)Oc3c(C)c(O)c4c(O)c(c(/C=N/N5CCN(C)CC5)c(O)c4c3C2=O)NC(=O)/C(C)=C\C=C\[C@H](C)[C@H](O)[C@@H](C)[C@@H](O)[C@@H](C)[C@H](OC(C)=O)[C@@H]1C [RIF, rifampin] |  |  |  |  |  |  |  |  |  |  |  | 0.063 (≈ 0.0766 µM) |  | MIC [1]: 0.25 µg/mL (≈ 0.304 µM); MIC [2]: 0.5 µg/mL (≈ 0.608 µM); MIC (M. africanum ATCC 25420): 0.25 µg/mL (≈ 0.304 µM); MIC [3]: 1 µg/mL (≈ 1.22 µM); MIC [4]: 0.25 µg/mL (≈ 0.304 µM); MIC [5]: > 16 µg/mL; MIC [6]: 0.25 µg/mL (≈ 0.304 µM); bactericidal activity against intracellular bacilli [9]: killed the intracellular bacilli; IC90 ([9]; Mycobacterium tuberculosis, H37RV, THP-1, read-out: 90% inhibitory concentration (IC90)): 1.15 µg/mL (≈ 1.4 µM); MIC [7]: 0.25 µg/mL (≈ 0.304 µM); MIC (M. caprae ATCC BAA-824): 0.13 µg/mL (≈ 0.158 µM); bactericidal activity against intracellular bacilli [10]: killed the intracellular bacilli; IC90 ([10]; Mycobacterium tuberculosis, THP-1, read-out: 90% inhibitory concentration (IC90)): 0.565 µg/mL (≈ 0.686 µM); MIC [8]: 0.5 µg/mL (≈ 0.608 µM); MIC (M. microti ATCC 11152): 0.13 µg/mL (≈ 0.158 µM)
COc1c(N2C[C@@H]3CCCN[C@@H]3C2)c(F)cc2c(=O)c(C(=O)O)cn(C3CC3)c12 [MXF, moxifloxacin] |  | 0.5 (≈ 1.25 µM) | 0.25 (≈ 0.623 µM) | 0.25 (≈ 0.623 µM) | 0.5 (≈ 1.25 µM) | 0.25 (≈ 0.623 µM) | 0.25 (≈ 0.623 µM) | 0.13 (≈ 0.324 µM) | 0.5 (≈ 1.25 µM) | 0.063 (≈ 0.157 µM) | 0.25 (≈ 0.623 µM) | 0.13 (≈ 0.324 µM) | 0.063 (≈ 0.157 µM) | 
